How the values were obtained:
[1] = Inhibition of HDAC in human HeLa cell nuclear extracts using (Boc-Lys(Ac)-AMC as substrate preincubated for 5 mins followed by substrate addition measured after 30 mins by fluorescence assay; format: cell-based
HEL = test: Antiproliferative activity against human HEL cells after 48 hrs by MTT assay; format: functional, cell-based
K562 = test: Antiproliferative activity against human K562 cells after 48 hrs by MTT assay; format: functional, cell-based; conditions: K562, 48 h
PC-3 = test: Antiproliferative activity against human PC3 cells after 48 hrs by MTT assay; format: functional, cell-based; conditions: PC-3, 48 h
MOLT-4 = test: Antiproliferative activity against human MOLT4 cells after 48 hrs by MTT assay; format: functional, cell-based; conditions: MOLT-4, 48 h
HeLa = test: Antiproliferative activity against human HeLa cells after 48 hrs by MTT assay; format: functional, cell-based
Histone deacetylase 3 = Histone deacetylase 3 (Homo sapiens, UniProt O15379); test: Inhibition of HDAC3 (unknown origin) using Ac-Leu-GlyLys(Ac)-AMC as substrate preincubated for 5 mins followed by substrate addition measured after 30 mins by fluorescence assay
Chain of Histone deacetylase 3 (O15379 whole entry): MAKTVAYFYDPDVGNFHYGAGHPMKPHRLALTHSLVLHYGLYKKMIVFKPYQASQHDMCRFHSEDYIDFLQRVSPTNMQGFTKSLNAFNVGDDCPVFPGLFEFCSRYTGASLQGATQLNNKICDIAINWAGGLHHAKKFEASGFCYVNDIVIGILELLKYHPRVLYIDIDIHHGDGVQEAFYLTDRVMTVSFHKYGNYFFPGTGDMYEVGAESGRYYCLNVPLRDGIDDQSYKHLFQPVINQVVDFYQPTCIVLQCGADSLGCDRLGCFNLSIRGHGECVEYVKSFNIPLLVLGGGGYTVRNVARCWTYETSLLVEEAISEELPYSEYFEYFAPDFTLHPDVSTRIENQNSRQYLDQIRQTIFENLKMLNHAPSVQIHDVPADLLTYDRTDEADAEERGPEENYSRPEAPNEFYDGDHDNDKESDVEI

Histone deacetylase 1 = Histone deacetylase 1 (Homo sapiens, UniProt Q13547); test: Inhibition of HDAC1 (unknown origin) using Ac-Leu-GlyLys(Ac)-AMC as substrate preincubated for 5 mins followed by substrate addition measured after 30 mins by fluorescence assay
Chain of Histone deacetylase 1 (Q13547 whole entry): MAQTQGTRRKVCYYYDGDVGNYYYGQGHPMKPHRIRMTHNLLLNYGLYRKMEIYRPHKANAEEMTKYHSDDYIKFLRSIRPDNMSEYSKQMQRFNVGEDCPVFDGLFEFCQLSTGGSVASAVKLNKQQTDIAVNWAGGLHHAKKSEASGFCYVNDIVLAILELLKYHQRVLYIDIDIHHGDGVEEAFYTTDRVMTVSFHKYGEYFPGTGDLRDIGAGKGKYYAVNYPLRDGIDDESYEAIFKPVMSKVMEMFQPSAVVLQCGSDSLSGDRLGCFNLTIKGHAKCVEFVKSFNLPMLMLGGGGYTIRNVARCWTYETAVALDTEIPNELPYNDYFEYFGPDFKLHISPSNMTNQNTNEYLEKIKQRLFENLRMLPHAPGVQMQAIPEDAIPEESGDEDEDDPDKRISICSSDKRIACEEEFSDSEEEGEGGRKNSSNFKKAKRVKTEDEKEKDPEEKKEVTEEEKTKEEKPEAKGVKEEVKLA

[2] = biological target: T1, Protein deacetylase HDAC6 (Homo sapiens, UniProt Q9UBN7); test: Inhibition of HDAC6 (unknown origin) using Ac-Leu-GlyLys(Ac)-AMC as substrate preincubated for 5 mins followed by substrate addition measured after 30 mins by fluorescence assay
T1 sequence (Q9UBN7 whole entry): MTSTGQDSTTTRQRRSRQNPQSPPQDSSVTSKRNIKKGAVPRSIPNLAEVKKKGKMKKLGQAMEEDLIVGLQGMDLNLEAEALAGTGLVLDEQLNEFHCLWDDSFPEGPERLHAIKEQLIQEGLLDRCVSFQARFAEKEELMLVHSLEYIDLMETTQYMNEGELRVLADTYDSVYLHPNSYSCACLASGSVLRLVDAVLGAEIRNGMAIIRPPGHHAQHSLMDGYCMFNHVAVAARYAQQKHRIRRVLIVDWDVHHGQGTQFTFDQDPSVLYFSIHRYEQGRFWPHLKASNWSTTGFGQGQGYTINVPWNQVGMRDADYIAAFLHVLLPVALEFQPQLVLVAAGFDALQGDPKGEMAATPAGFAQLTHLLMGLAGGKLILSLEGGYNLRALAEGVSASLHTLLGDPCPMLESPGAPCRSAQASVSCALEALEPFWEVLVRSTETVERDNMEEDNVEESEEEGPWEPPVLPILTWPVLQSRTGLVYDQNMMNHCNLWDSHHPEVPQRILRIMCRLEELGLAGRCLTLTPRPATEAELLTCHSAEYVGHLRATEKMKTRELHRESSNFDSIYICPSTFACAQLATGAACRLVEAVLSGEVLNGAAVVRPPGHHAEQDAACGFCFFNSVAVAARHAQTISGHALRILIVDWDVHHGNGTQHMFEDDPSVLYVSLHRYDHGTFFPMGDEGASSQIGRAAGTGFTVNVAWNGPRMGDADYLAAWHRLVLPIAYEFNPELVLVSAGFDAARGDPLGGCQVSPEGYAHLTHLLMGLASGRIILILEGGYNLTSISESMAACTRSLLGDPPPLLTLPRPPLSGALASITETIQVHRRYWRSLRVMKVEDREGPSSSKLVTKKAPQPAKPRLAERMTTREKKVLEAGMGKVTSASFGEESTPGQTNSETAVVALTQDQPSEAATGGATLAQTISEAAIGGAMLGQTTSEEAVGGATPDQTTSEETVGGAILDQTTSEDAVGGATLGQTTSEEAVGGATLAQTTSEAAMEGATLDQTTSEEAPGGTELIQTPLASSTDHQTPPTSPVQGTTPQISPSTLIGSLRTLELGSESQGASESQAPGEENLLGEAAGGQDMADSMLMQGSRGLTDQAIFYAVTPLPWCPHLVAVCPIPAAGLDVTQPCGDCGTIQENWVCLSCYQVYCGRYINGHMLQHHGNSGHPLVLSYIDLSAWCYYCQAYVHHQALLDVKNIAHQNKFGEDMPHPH

Histone deacetylase 2 = Histone deacetylase 2 (Homo sapiens, UniProt Q92769); test: Inhibition of HDAC2 (unknown origin) using Ac-Leu-GlyLys(Ac)-AMC as substrate preincubated for 5 mins followed by substrate addition measured after 30 mins by fluorescence assay
Chain of Histone deacetylase 2 (Q92769 whole entry): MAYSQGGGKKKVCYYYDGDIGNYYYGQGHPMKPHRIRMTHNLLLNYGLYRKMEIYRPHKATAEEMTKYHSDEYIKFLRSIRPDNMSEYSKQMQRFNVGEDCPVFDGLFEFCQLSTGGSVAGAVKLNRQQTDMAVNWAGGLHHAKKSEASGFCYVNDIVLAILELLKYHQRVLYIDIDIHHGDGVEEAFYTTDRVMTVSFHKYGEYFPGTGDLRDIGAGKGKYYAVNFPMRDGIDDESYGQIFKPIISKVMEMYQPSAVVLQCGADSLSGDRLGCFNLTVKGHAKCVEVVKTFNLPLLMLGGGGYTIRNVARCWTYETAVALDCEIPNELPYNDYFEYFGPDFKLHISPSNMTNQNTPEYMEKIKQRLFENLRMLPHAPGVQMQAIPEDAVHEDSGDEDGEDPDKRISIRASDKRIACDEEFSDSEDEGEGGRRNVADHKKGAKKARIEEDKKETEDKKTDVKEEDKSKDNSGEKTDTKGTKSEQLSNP

Compound | IC50 [1] [nM] | further results
COc1cc(/C=C/C(=O)NO)ccc1OC[C@H](Cc1c[nH]c2ccccc12)NC(=O)c1ccc(F)cc1 | 48.6 | 
COc1cc(/C=C/C(=O)NO)ccc1OC[C@H](Cc1c[nH]c2ccccc12)NC(=O)c1ccccc1[N+](=O)[O-] | 75.7 | 
COc1cc(/C=C/C(=O)NO)ccc1OC[C@H](Cc1c[nH]c2ccccc12)NC(=O)c1cccc(C)c1 | 24.2 | 
COc1cc(/C=C/C(=O)NO)ccc1OC[C@H](Cc1c[nH]c2ccccc12)NC(=O)c1ccccc1F | 76.5 | 
COc1cc(/C=C/C(=O)NO)ccc1OC[C@H](Cc1c[nH]c2ccccc12)NC(=O)c1ccc(Cl)cc1Cl | 95 | 
COc1cc(/C=C/C(=O)NO)ccc1OC[C@H](Cc1c[nH]c2ccccc12)NC(=O)CCc1ccccc1 | 21.7 | 
COc1cc(/C=C/C(=O)NO)ccc1OC[C@H](Cc1c[nH]c2ccccc12)NC(=O)c1cccc(Cl)c1 | 14.4 | IC50 (HEL): 130 nM; IC50 (K562): 280 nM; IC50 (PC-3): 1000 nM; IC50 (MOLT-4): 60 nM; IC50 (HeLa): 430 nM
COc1ccc(C(=O)N[C@H](COc2ccc(/C=C/C(=O)NO)cc2OC)Cc2c[nH]c3ccccc23)cc1 | 9.6 | IC50 (Histone deacetylase 3): 7.1 nM; IC50 (HEL): 130 nM; IC50 (Histone deacetylase 1): 17.5 nM; IC50 (K562): 280 nM; IC50 [2]: 87 nM; IC50 (PC-3): 1000 nM; IC50 (MOLT-4): 60 nM; IC50 (HeLa): 430 nM; IC50 (Histone deacetylase 2): 59.5 nM
COc1cc(/C=C/C(=O)NO)ccc1OC[C@H](Cc1c[nH]c2ccccc12)NC(=O)c1ccc(NC(C)=O)cc1O | 47.1 | 
COc1cc(/C=C/C(=O)NO)ccc1OC[C@H](Cc1c[nH]c2ccccc12)NC(=O)c1cccc(Br)c1 | 19.5 | 
COc1cc(/C=C/C(=O)NO)ccc1OC[C@H](Cc1c[nH]c2ccccc12)NC(=O)c1ccc([N+](=O)[O-])cc1 | 60.7 | 
COc1cc(/C=C/C(=O)NO)ccc1OC[C@H](Cc1c[nH]c2ccccc12)NC(=O)c1ccc(Br)cc1 | 12.1 | IC50 (HEL): 210 nM; IC50 (K562): 510 nM; IC50 (PC-3): 1250 nM; IC50 (MOLT-4): 60 nM; IC50 (HeLa): 580 nM
COc1cc(/C=C/C(=O)NO)ccc1OC[C@H](Cc1c[nH]c2ccccc12)NC(=O)CCCc1ccccc1 | 42.4 | 
COc1cc(/C=C/C(=O)NO)ccc1OC[C@H](Cc1c[nH]c2ccccc12)NC(=O)c1ccc(C)cc1 | 8.1 | IC50 (HEL): 150 nM; IC50 (K562): 320 nM; IC50 (PC-3): 1090 nM; IC50 (MOLT-4): 40 nM; IC50 (HeLa): 310 nM
COc1cc(/C=C/C(=O)NO)ccc1OC[C@H](Cc1c[nH]c2ccccc12)NC(=O)c1ccccc1C | 102 | 
COc1cc(/C=C/C(=O)NO)ccc1OC[C@H](Cc1c[nH]c2ccccc12)NC(=O)c1cccc(F)c1 | 60 | 
COc1cc(/C=C/C(=O)NO)ccc1OC[C@H](Cc1c[nH]c2ccccc12)NC(=O)c1ccccc1Br | 62.2 | 
COc1cc(/C=C/C(=O)NO)ccc1OC[C@H](Cc1c[nH]c2ccccc12)NC(=O)Cc1ccccc1 | 54.8 | 
COc1cc(/C=C/C(=O)NO)ccc1OC[C@H](Cc1c[nH]c2ccccc12)NC(=O)c1ccccc1 | 15.8 | 
COc1cccc(C(=O)N[C@H](COc2ccc(/C=C/C(=O)NO)cc2OC)Cc2c[nH]c3ccccc23)c1 | 14.1 | 
COc1cc(/C=C/C(=O)NO)ccc1OC[C@H](Cc1c[nH]c2ccccc12)NC(=O)c1ccccc1OC | 60 | 
COc1cc(/C=C/C(=O)NO)ccc1OC[C@H](Cc1c[nH]c2ccccc12)NC(=O)c1ccc(Cl)cc1 | 23.3 | 
COc1cc(/C=C/C(=O)NO)ccc1OC[C@H](Cc1c[nH]c2ccccc12)NC(=O)c1cccc([N+](=O)[O-])c1 | 34.4 | 
COc1cc(/C=C/C(=O)NO)ccc1OC[C@H](Cc1c[nH]c2ccccc12)NC(=O)c1ccc(Br)cc1Cl | 114 | 
COc1cc(/C=C/C(=O)NO)ccc1OC[C@H](Cc1c[nH]c2ccccc12)NC(=O)c1ccccc1Cl | 22.5 | 
